Where two headings read alike, the source gives them in different places.
Experiments:
[1] = target: ENPP1 on MDA-MB-231 cells (Homo sapiens (Human), UniProt P22413); experiment: Assay 3: inhibition of ENPP1 hydrolysis of AMP p-nitrophenyl ester on MDA-MB-231 cells
ENPP-1 ECD = ENPP-1 ECD (Homo sapiens (Human), UniProt P22413); experiment: Assay 2: inhibition of ENPP1 hydrolysis of 2′,3′-cGAMP (AMP-Glo, […] enzyme)
Procedure: Assay 2: Compared to the conditions in Assay 1, this assay has a larger dynamic range and ensures the system is under steady-state conditions by reducing the enzyme concentration in the assay.
Test compounds were plated in a 3× dilution scheme in a 384 well plate. […] AMP Detection solution (10 μL) was added to each well, the plate centrifuged and incubated for 60 min.

[2] = Assay 2 (KI), ENPP1 hydrolysis of 2′,3′-cGAMP, AMP-Glo, […] ENPP-1, 24 μM cGAMP
[3] = Assay 2 (KI), inhibition of ENPP1 hydrolysis of 2′,3′-cGAMP, no unit in Table 18 (Table 17 legend for this assay uses nM)
[4] = read-out: Assay 3 (KI, app), apparent KI from IC50 via Cheng/Prusoff, pNP-AMP […], MDA-MB-231 cells, pH 7.4, 37° C., 3 h, unit inferred
[5] = read-out: Assay 2 (KI), ENPP1 hydrolysis of 2′,3′-cGAMP, AMP-Glo, […] ENPP-1, 24 μM cGAMP
[6] = read-out: Assay 2 (KI), inhibition of ENPP1 hydrolysis of 2′,3′-cGAMP, no unit in Table 18 (Table 17 legend for this assay uses nM)

Chain of ENPP1 on MDA-MB-231 cells (P22413 whole entry, the tested form may be a part): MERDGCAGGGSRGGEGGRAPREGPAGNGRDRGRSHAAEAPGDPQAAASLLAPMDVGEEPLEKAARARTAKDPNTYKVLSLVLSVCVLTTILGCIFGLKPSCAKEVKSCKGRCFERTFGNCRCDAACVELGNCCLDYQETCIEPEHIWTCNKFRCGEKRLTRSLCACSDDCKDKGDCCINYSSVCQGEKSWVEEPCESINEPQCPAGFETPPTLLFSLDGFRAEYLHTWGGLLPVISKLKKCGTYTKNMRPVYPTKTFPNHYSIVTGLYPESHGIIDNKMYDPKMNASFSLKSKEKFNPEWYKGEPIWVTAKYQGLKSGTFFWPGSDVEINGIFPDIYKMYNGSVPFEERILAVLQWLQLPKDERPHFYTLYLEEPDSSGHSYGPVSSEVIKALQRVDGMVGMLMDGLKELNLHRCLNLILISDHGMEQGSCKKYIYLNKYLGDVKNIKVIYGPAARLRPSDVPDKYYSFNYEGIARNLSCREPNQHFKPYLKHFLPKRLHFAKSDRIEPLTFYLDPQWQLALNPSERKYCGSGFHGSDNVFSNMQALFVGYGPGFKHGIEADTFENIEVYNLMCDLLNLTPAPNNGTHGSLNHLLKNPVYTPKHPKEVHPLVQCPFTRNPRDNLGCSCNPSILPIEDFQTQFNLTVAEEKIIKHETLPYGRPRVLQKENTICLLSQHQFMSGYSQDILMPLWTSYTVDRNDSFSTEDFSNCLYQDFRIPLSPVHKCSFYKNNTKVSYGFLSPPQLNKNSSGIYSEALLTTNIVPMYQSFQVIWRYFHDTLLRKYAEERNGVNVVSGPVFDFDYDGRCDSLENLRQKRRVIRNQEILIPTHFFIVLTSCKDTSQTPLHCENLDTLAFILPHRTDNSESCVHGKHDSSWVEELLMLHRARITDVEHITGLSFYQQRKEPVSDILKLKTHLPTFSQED
Chain of ENPP-1 ECD (P22413 98-925): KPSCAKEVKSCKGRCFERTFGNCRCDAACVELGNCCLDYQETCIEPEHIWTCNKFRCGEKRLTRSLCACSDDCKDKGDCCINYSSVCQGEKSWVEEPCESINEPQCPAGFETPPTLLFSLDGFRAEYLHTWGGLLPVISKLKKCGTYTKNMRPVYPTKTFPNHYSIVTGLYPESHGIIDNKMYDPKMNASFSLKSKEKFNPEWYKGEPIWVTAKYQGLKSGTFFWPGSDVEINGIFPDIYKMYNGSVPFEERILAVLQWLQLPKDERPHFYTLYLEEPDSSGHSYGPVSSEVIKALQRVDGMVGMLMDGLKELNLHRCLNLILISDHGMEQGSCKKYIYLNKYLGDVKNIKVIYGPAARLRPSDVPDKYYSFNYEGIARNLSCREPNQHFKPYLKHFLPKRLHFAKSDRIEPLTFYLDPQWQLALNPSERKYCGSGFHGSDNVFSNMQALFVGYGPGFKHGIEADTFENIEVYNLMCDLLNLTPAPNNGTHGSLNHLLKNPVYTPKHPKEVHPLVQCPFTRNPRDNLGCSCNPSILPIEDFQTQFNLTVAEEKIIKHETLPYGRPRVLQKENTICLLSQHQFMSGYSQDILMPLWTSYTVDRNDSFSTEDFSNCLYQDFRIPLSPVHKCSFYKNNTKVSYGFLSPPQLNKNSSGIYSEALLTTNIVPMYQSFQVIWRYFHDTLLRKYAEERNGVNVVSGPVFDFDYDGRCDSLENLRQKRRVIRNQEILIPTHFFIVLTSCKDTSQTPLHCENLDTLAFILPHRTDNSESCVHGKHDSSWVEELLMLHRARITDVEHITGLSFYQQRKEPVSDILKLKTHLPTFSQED

Ki [1] [nM] | Ki (ENPP-1 ECD; [2]) [nM] | Ki (ENPP-1 ECD; [3]) [nM] | Ki [1, 4] [nM] | Ki (ENPP-1 ECD; [5]) [nM] | Ki (ENPP-1 ECD; [6]) [nM] | SMILES
– | – | – | 4.5 | – | 0.12 | COc1cccc2c(N3CCC(C[S@@](C)(=N)=O)CC3)ncnc12 [Compound 146a]
– | – | – | 1.7 | < 3 | 0.016 | COc1cc2nccc(N3CCC4(CC3)CCN([S@@](C)(=N)=O)C4)c2cc1Cl [Compound 156a]
– | – | – | 0.22 | – | 0.007 | COc1cc2ncnc(N3CCC4(CC3)CCN([S@](=N)(=O)C3CC3)C4)c2cc1OC [Compound 160a]
– | – | – | 5.2 | < 3 | 0.015 | COc1cc2nccc(-c3ccc4c(c3)CN([S@@](C)(=N)=O)CC4)c2cc1OC [Compound 161a]
– | – | – | > 190 | – | 15 | COc1cc2nccc(OCc3cccc([S@@](C)(=N)=O)c3)c2cc1F [Compound 169a]
– | – | – | 1.5 | – | 0.018 | COc1cc2nccc(OCc3cccc([S@](C)(=N)=O)c3)c2cc1F [Compound 169b]
– | – | – | 0.53 | – | 0.011 | COc1cc2nccc(OCc3cccc([S@](C)(=N)=O)c3)c2cc1OC [Compound 175a]
– | – | – | 0.48 | – | 0.0085 | COc1ccc2c(OCc3cc(F)cc([S@](C)(=N)=O)c3)ccnc2c1 [Compound 177b]
– | – | – | 0.63 | – | 0.014 | COc1cccc2c(N3CCC(C[S@](C)(=N)=O)CC3)c(C#N)cnc12 [Compound 179b]
– | – | – | 1.7 | – | 0.1 | COc1cc2nccc(N3CC4(CC(C[S@@](C)(=N)=O)C4)C3)c2cc1F [Compound 184a]
– | – | – | 58 | – | 2.5 | COc1cc2nccc(N3CC4(CC(C[S@](C)(=N)=O)C4)C3)c2cc1F [Compound 184b]
– | – | – | 0.32 | – | 0.013 | COc1cccc2c(N3CCC(O)(C[S@@](C)(=N)=O)CC3)ncnc12 [Compound 185a]
– | – | – | 0.31 | – | 0.0075 | COc1cccc2c(N3CCC(C[S@](=N)(=O)C4CC4)CC3)c(C#N)cnc12 [Compound 189b]

Further lines, the compound ahead of its results:

SMILES | Ki [1] [nM] | Ki (ENPP-1 ECD; [2]) [nM] | Ki (ENPP-1 ECD; [3]) [nM] | Ki [1, 4] [nM] | Ki (ENPP-1 ECD; [5]) [nM] | Ki (ENPP-1 ECD; [6]) [nM]
COc1ccc2c(Oc3ccc(S(=N)(=O)CC4CC4)cc3)ccnc2c1 (centres unmarked) [Compound 123, (cyclopropylmethyl)(imino){4-[(7-methoxyquinolin-4-yl)oxy]phenyl}-λ^6-sulfanone] | 60 | < 3 | 1.5 | – | – | –
COc1ccc2c(Oc3ccc(S(C)(=N)=O)cc3)cc(C)nc2c1 (centres unmarked) [Compound 124, imino({4-[(7-methoxy-2-methylquinolin-4-yl)oxy]phenyl})methyl-λ^6-sulfanone] | 30 | < 3 | 0.73 | – | – | –
COc1ccc2c(Oc3ccc(S(=N)(=O)CC(C)(C)O)cc3)ccnc2c1 (centres unmarked) [Compound 132, (2-hydroxy-2-methylpropyl)(imino){4-[(7-methoxyquinolin-4-yl)oxy]phenyl}-λ^6-sulfanone] | 45 | < 3 | 1.1 | – | – | –
COc1cc2nccc(N3CCC(CC[S@@](C)(=N)=O)CC3)c2cc1Cl [Compound 141a] | – | – | – | 28 | < 3 | 0.26
COc1ccc2c(N3CCC(CCS(C)(=N)=O)CC3)c(C#N)cnc2c1 (centres unmarked) [Compound 143, 4-(4-{2-[imino(methyl)oxo-λ6-sulfanyl]ethyl}piperidin-1-yl)-7-methoxyquinoline-3-carbonitrile] | 180 | < 3 | 1 | – | – | –
COc1cc2ncc(C#N)c(N3CCC(CCS(C)(=N)=O)CC3)c2cc1OC (centres unmarked) [Compound 144, 4-(4-{2-[imino(methyl)oxo-λ6-sulfanyl]ethyl}piperidin-1-yl)-6,7-dimethoxyquinoline-3-carbonitrile] | 19 | < 3 | 0.28 | – | – | –
COc1cccc2c(N3CCC(CS(C)(=N)=O)CC3)ncnc12 (centres unmarked) [Compound 146, imino({[1-(8-methoxyquinazolin-4-yl)piperidin-4-yl]methyl})methyl-λ^6-sulfanone] | 15 | < 3 | 0.36 | – | – | –
COc1cc2nccc(N3CCC4(CC3)CCN(S(C)(=N)=O)C4)c2cc1Cl (centres unmarked) [Compound 156, [8-(6-chloro-7-methoxyquinolin-4-yl)-2,8-diazaspiro[4.5]decan-2-yl](imino)methyl-λ^6-sulfanone] | 4.1 | < 3 | 0.03 | – | – | –
CCS(=N)(=O)N1CCC2(CCN(c3ncnc4cc(OC)c(OC)cc34)CC2)C1 (centres unmarked) [Compound 159, [8-(6,7-dimethoxyquinazolin-4-yl)-2,8-diazaspiro[4.5]decan-2-yl](ethyl)imino-λ^6-sulfanone] | 3.6 | < 3 | 0.025 | – | – | –
COc1cc2ncnc(N3CCC4(CC3)CCN(S(=N)(=O)C3CC3)C4)c2cc1OC (centres unmarked) [Compound 160, {cyclopropyl[8-(6,7-dimethoxyquinazolin-4-yl)-2,8-diazaspiro[4.5]decan-2-yl]imino-λ^6-sulfanyl}one] | 0.45 | < 3 | 0.021 | – | – | –
COc1ccc2c(Oc3ccc(S(=N)(=O)C4CN(C(C)=O)C4)cc3)ccnc2c1 (centres unmarked) [Compound 166, 1-[3-({4-[(7-methoxyquinolin-4-yl)oxy]phenyl}imino-λ^6-sulfanyl)azetidin-1-yl]ethan-1-one] | 230 | – | 3.1 | – | – | –
COc1ccc2c(Oc3ccc(S(C)(=N)=O)cc3)c(C)cnc2c1 (centres unmarked) [Compound 168, imino({4-[(7-methoxy-3-methylquinolin-4-yl)oxy]phenyl})methyl-λ^6-sulfanone] | 40 | – | 0.84 | – | – | –
COc1cc2nccc(OCc3cccc(S(C)(=N)=O)c3)c2cc1F (centres unmarked) [Compound 169, (3-{[(6-fluoro-7-methoxyquinolin-4-yl)oxy]methyl}phenyl)(imino)methyl-λ^6-sulfanone] | 1.5 | – | 0.051 | – | – | –
COc1ccc2c(OCc3cc(S(C)(=N)=O)co3)ccnc2c1 (centres unmarked) [Compound 170, imino(5-{[(7-methoxyquinolin-4-yl)oxy]methyl}furan-3-yl)methyl-λ^6-sulfanone] | 25 | – | 0.7 | – | – | –
COc1cc2ncnc(OCc3cccc(S(C)(=N)=O)c3)c2cc1OC (centres unmarked) [Compound 173, (3-{[(6,7-dimethoxyquinazolin-4-yl)oxy]methyl}phenyl)(imino)methyl-λ^6-sulfanone] | 9.2 | – | 0.17 | – | – | –
COc1ccc2c(OCc3cccc(S(C)(=N)=O)c3)ncnc2c1 (centres unmarked) [Compound 174, imino(3-{[(7-methoxyquinazolin-4-yl)oxy]methyl}phenyl)methyl-λ^6-sulfanone] | – | – | – | 240 | – | 5.2
COc1cc2nccc(OCc3cccc(S(C)(=N)=O)c3)c2cc1OC (centres unmarked) [Compound 175, (3-{[(6,7-dimethoxyquinolin-4-yl)oxy]methyl}phenyl)(imino)methyl-λ^6-sulfanone] | 3.5 | – | 0.037 | – | – | –
COc1cc2nccc(OCc3cccc(S(C)(=N)=O)c3)c2cc1Cl (centres unmarked) [Compound 176, (3-{[(6-chloro-7-methoxyquinolin-4-yl)oxy]methyl}phenyl)(imino)methyl-λ^6-sulfanone] | 7.2 | – | 0.094 | – | – | –
COc1ccc2c(OCc3cc(F)cc(S(C)(=N)=O)c3)ccnc2c1 (centres unmarked) [Compound 177, (3-fluoro-5-{[(7-methoxyquinolin-4-yl)oxy]methyl}phenyl)(imino)methyl-λ^6-sulfanone] | 1.5 | – | 0.03 | – | – | –
COc1cccc2c(N3CCC(CS(C)(=N)=O)CC3)c(C#N)cnc12 (centres unmarked) [Compound 179, 4-(4-{[imino(methyl)oxo-λ^6-sulfanyl]methyl}piperidin-1-yl)-8-methoxyquinoline-3-carbonitrile] | 3.3 | – | 0.048 | – | – | –
COc1cc2ncnc(N3CCC4(CCC(S(C)(=N)=O)C4)CC3)c2cc1OC (centres unmarked) [Compound 181, [8-(6,7-dimethoxyquinazolin-4-yl)-8-azaspiro[4.5]decan-2-yl](imino)methyl-λ^6-sulfanone] | 28 | – | 0.16 | – | – | –
COc1cc2nccc(N3CC4(CC(CS(C)(=N)=O)C4)C3)c2cc1F (centres unmarked) [Compound 184, {[2-(6-fluoro-7-methoxyquinolin-4-yl)-2-azaspiro[3.3]heptan-6-yl]methyl}(imino)methyl-λ^6-sulfanone] | 5.5 | – | 0.13 | – | – | –
COc1cccc2c(N3CCC(O)(CS(C)(=N)=O)CC3)ncnc12 (centres unmarked) [Compound 185, {[4-hydroxy-1-(8-methoxyquinazolin-4-yl)piperidin-4-yl]methyl}(imino)methyl-λ^6-sulfanone] | 0.45 | – | 0.028 | – | – | –
COc1cc2nccc(N3CC4(CC(CS(C)(=N)=O)C4)C3)c2cc1OC (centres unmarked) [Compound 186, {[2-(6,7-dimethoxyquinolin-4-yl)-2-azaspiro[3.3]heptan-6-yl]methyl}(imino)methyl-λ^6-sulfanone] | 17 | – | 0.38 | – | – | –
CCOc1cccc2c(N3CCC(CS(C)(=N)=O)CC3)ncnc12 (centres unmarked) [Compound 187, {[1-(8-ethoxyquinazolin-4-yl)piperidin-4-yl]methyl}(imino)methyl-λ^6-sulfanone] | 4.4 | – | 0.19 | – | – | –
COc1cc2nncc(N3CC4(CC(CS(C)(=N)=O)C4)C3)c2cc1OC (centres unmarked) [Compound 188, {[2-(6,7-dimethoxycinnolin-4-yl)-2-azaspiro[3.3]heptan-6-yl]methyl}(imino)methyl-λ^6-sulfanone] | 6.5 | – | 0.074 | – | – | –
COc1cccc2c(N3CCC(CS(=N)(=O)C4CC4)CC3)c(C#N)cnc12 (centres unmarked) [Compound 189, 4-(4-{[cyclopropyl(imino)oxo-λ^6-sulfanyl]methyl}piperidin-1-yl)-8-methoxyquinoline-3-carbonitrile] | 0.45 | – | 0.033 | – | – | –
